The record followed here is PubChem BioAssay AID624129 (Sanford-Burnham Center for Chemical Genomics, 2012).

One may read the IC50 as the midpoint of a concentration-inhibition curve. As usually defined, the inhibition is the change of the read-out against control, counted positive when it falls.

Holding throughout (assay): CXCR6 receptor antagonists, dose response, cell-based, beta-arrestin, DiscoveRx, APJ panel, uHTS hits (AID 624129)
In assay [1] the target is Apelin receptor (Homo sapiens) (UniProt P35414). To be noted: CXCR6 beta-arrestin (DiscoveRx) antagonist cell assay, APJ.
Assay [2] deals with Beta-galactosidase (Escherichia coli) (UniProt Q8VNN2). To be noted: CXCR6 beta-arrestin (DiscoveRx) antagonist cell assay, b-galactosidase.
Beta-galactosidase (Escherichia coli), sequence (Q8VNN2 whole entry, looked up): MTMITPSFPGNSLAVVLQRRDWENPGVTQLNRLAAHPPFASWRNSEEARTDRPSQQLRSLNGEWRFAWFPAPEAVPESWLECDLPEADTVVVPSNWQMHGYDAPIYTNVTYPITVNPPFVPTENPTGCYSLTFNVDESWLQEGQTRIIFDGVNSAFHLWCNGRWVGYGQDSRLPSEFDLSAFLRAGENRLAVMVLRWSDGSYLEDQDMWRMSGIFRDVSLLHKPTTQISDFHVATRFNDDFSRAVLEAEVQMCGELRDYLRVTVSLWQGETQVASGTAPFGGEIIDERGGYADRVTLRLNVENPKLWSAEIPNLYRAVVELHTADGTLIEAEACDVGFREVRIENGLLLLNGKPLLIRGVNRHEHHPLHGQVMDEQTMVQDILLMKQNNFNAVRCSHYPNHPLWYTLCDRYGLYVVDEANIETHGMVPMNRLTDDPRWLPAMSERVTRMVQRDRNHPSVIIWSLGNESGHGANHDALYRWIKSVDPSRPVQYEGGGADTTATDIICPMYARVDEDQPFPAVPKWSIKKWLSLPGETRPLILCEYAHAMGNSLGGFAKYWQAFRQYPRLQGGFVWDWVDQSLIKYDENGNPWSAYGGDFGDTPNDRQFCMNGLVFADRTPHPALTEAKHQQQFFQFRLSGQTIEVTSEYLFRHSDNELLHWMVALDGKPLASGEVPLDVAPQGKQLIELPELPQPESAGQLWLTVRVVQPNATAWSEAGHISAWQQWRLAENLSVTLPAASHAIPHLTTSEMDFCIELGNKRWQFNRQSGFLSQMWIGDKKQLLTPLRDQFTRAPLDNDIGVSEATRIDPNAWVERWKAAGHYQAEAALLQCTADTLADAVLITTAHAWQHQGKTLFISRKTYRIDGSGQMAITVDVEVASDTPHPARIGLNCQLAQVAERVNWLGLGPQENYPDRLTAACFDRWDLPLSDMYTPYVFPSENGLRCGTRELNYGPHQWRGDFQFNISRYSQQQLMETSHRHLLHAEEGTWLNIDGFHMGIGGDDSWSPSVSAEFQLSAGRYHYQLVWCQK
Assay [3] concerns the target C-C chemokine receptor type 6 (Homo sapiens) (UniProt P51684). To be noted: CXCR6 beta-arrestin (DiscoveRx) antagonist cell assay.
For assay [4], the target named is C-X-C chemokine receptor type 6 (Homo sapiens) (UniProt O00574). Conditions: CXCR6 beta-arrestin (DiscoveRx) antagonist cell assay; for inhibition: CXCR6, run 1, dose range 2, at 80 µM (top of the series).
C-X-C chemokine receptor type 6 (Homo sapiens), sequence (O00574 whole entry, looked up): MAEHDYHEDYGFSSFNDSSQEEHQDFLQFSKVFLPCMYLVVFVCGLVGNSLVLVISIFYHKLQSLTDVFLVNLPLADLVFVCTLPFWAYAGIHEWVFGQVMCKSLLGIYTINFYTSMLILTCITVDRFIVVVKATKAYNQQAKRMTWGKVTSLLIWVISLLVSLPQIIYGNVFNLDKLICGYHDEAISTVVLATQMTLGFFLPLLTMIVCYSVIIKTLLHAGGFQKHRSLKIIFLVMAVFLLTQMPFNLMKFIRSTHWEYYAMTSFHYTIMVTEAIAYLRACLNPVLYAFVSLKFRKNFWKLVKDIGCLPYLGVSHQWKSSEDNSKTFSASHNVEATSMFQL
[5] abbreviates: dose range 1, mean IC50 across replicates.
The mark [6] stands for this setting: CCR6, dose range 1, mean IC50 across replicates.
[7] abbreviates: CXCR6, dose range 1, mean IC50 across replicates.

Calls of active or inactive are those of the source. How the calls were made is not given here.

As for `CCS(=O)(=O)c1ncc(Cl)c(C(=O)Nc2ccc(S(=O)(=O)N3CCC(C)CC3)cc2)n1`, the IC50 in assay [1] (dose range 1) is 7.82 µM; in assay [1] (setting [5]) it was 7.15 µM; in assay [1] (run 2, dose range 1), 6.41 µM; in assay [1] (run 3, dose range 1), 7.21 µM; in assay [2] (dose range 1) it was > 80 µM (inactive); in assay [2] (setting [5]), over 80 µM. Moreover, the IC50 was 5.88 µM in assay [3] (CCR6, dose range 1); 5.71 µM in assay [3] (setting [6]); 5.55 µM in assay [3] (CCR6, run 2, dose range 1); 7.4 µM in assay [4] (CXCR6, dose range 1); 8.21 µM in assay [4] (setting [7]); 8.3 µM in assay [4] (CXCR6, run 1, dose range 2). The IC50 was 7.89 µM in assay [4] (CXCR6, run 2, dose range 1) and 9.26 µM in assay [4] (CXCR6, run 2, dose range 2).

Regarding `Cc1ccc(OCCn2c(NC(=O)c3ccco3)nc3ccccc32)cc1`, the IC50 in assay [1] (dose range 1) was 11.3 µM; in assay [1] (setting [5]) it was 10.3 µM; in assay [1] (run 2, dose range 1) it was 8.87 µM; in assay [1] (run 3, dose range 1), 10.8 µM; in assay [2] (dose range 1) it was 32.8 µM; in assay [2] (setting [5]), 32.8 µM. The IC50 is 4.28 µM in assay [3] (CCR6, dose range 1); 3.98 µM in assay [3] (setting [6]); 3.68 µM in assay [3] (CCR6, run 2, dose range 1); 6.41 µM in assay [4] (CXCR6, dose range 1); 6.79 µM in assay [4] (setting [7]); 7.16 µM in assay [4] (CXCR6, run 2, dose range 1). In addition, the inhibition in assay [4] stood at 146%.

For `O=C1C=CC(=O)N1c1ccc(-c2nc3ccccc3o2)cc1`, the IC50 in assay [1] (dose range 1) was 5.45 µM; in assay [1] (setting [5]), 5.31 µM; in assay [1] (run 2, dose range 1) it was 5.18 µM; in assay [1] (run 3, dose range 1), over 80 µM; in assay [2] (dose range 1) it was > 80 µM (inactive); in assay [2] (setting [5]), over 80 µM. Besides, the IC50 in assay [3] (CCR6, dose range 1) is 2.84 µM; in assay [3] (setting [6]) it was 3.1 µM; in assay [3] (CCR6, run 2, dose range 1) it was 3.36 µM; in assay [4] (CXCR6, dose range 1), 4.9 µM; in assay [4] (setting [7]) it was 4.9 µM; in assay [4] (CXCR6, run 2, dose range 1), over 80 µM. Also, the inhibition in assay [4] is 128%.

Take `Cc1ccc2c(c1)C1CN(C)CCC1N2C(=S)NC(=O)c1ccc(Br)cc1` (stereo unspecified): the IC50 was 12.9 µM in assay [1] (dose range 1); 12 µM in assay [1] (setting [5]); 10.9 µM in assay [1] (run 2, dose range 1); 12.3 µM in assay [1] (run 3, dose range 1); > 80 µM (inactive) in assay [2] (dose range 1); over 80 µM in assay [2] (setting [5]). In addition, the IC50 in assay [3] (CCR6, dose range 1) is 12.5 µM; in assay [3] (setting [6]), 14 µM; in assay [3] (CCR6, run 2, dose range 1), 15.5 µM; in assay [4] (setting [7]), 12.5 µM; in assay [4] (CXCR6, run 1, dose range 2), 6.99 µM; in assay [4] (CXCR6, run 2, dose range 1), 18.4 µM. This molecule also gave an IC50 in assay [4] (CXCR6, run 2, dose range 2) of 11.2 µM. For the same molecule, in assay [4] (CXCR6, dose range 1), the IC50 entry was “inactive”.

As for `Cc1[nH]n(-c2ccccc2)c(=S)c1C=NCCCN=Cc1c(C)[nH]n(-c2ccccc2)c1=S`, the IC50 in assay [1] (dose range 1) is 2.44 µM; in assay [1] (setting [5]), 3.07 µM; in assay [1] (run 2, dose range 1), 3.21 µM; in assay [1] (run 3, dose range 1), 3.56 µM; in assay [2] (dose range 1), > 80 µM (inactive); in assay [2] (setting [5]), over 80 µM. Further, the IC50 is 0.999 µM in assay [3] (CCR6, dose range 1); 1.43 µM in assay [3] (setting [6]); 1.86 µM in assay [3] (CCR6, run 2, dose range 1); 1.92 µM in assay [4] (CXCR6, dose range 1); 1.55 µM in assay [4] (setting [7]); 1.07 µM in assay [4] (CXCR6, run 1, dose range 2). In addition, the IC50 in assay [4] (CXCR6, run 2, dose range 1) stood at 2.07 µM; in assay [4] (CXCR6, run 2, dose range 2), 1.14 µM.

As for `CCCC1CCC(=NNC(=S)NCCc2ccccc2)CC1` (stereo unspecified), the IC50 was over 80 µM in assay [1] (setting [5]); over 80 µM in assay [1] (run 2, dose range 1); over 80 µM in assay [1] (run 3, dose range 1); > 80 µM (inactive) in assay [2] (dose range 1); over 80 µM in assay [2] (setting [5]); over 80 µM in assay [3] (setting [6]). Also, the IC50 in assay [3] (CCR6, run 2, dose range 1) is over 80 µM; in assay [4] (CXCR6, dose range 1), > 80 µM (inactive); in assay [4] (setting [7]), over 80 µM; in assay [4] (CXCR6, run 2, dose range 1) it was over 80 µM. For the same molecule, the inhibition in assay [4] was -19%.

Regarding `COc1ccc(-c2csc(Cc3nc(O)cs3)n2)cc1`, the IC50 in assay [1] (dose range 1) was 4.5 µM; in assay [1] (setting [5]), 4.96 µM; in assay [1] (run 2, dose range 1), 5.92 µM; in assay [1] (run 3, dose range 1), 4.47 µM; in assay [2] (dose range 1), > 80 µM (inactive); in assay [2] (setting [5]), over 80 µM. Moreover, the IC50 was 2.8 µM in assay [3] (CCR6, dose range 1); 3.45 µM in assay [3] (setting [6]); 4.1 µM in assay [3] (CCR6, run 2, dose range 1); 4.12 µM in assay [4] (CXCR6, dose range 1); 4.09 µM in assay [4] (setting [7]); 3.66 µM in assay [4] (CXCR6, run 1, dose range 2). Further, the IC50 in assay [4] (CXCR6, run 2, dose range 1) was found to be 4.68 µM; in assay [4] (CXCR6, run 2, dose range 2) it was 3.91 µM.

Regarding `O=[N+]([O-])c1c(NCCCO)cc(Sc2nc3ccccc3s2)c2nonc12`, the IC50 in assay [1] (dose range 1) is 9.5 µM; in assay [1] (setting [5]), 11.5 µM; in assay [1] (run 2, dose range 1), 11.7 µM; in assay [1] (run 3, dose range 1) it was 13.2 µM; in assay [2] (dose range 1) it was > 80 µM (inactive); in assay [2] (setting [5]), over 80 µM. Besides, the IC50 in assay [3] (CCR6, dose range 1) is 8.25 µM; in assay [3] (setting [6]), 8.81 µM; in assay [3] (CCR6, run 2, dose range 1), 9.37 µM; in assay [4] (setting [7]) it was 14.3 µM; in assay [4] (CXCR6, run 2, dose range 1) it was 13.5 µM. For the same molecule, the IC50 result in assay [4] (CXCR6, dose range 1) was “inactive”. The inhibition in assay [4] was found to be 118%.
